Measured values from ChEMBL document CHEMBL1201862, “PubChem BioAssay data set” (2004).
Activity calls are given as the source filed them.

Tests used:
[1] = test system: Streptococcus sp. 'group A'; assay: Streptococcus pyogenes SK(-)GAS viability under kanamycin – luminescence, BacTiterGlo, confirmation, counter-screen for streptokinase expression inhibitor project, dose response (AID 1900); type: functional, organism-based
[2] = target: T1, Streptokinase A (Streptococcus pyogenes serotype M1, UniProt P10520); assay: viability-normalized secreted streptokinase activity reduction – plasminogen activation absorbance, OD405, dose response (AID 1914); type: functional, Streptococcus pyogenes M1 GAS;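 note: secreted streptokinase activity via plasminogen activation per viability signal from cell pellet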
T1 sequence (P10520 whole entry): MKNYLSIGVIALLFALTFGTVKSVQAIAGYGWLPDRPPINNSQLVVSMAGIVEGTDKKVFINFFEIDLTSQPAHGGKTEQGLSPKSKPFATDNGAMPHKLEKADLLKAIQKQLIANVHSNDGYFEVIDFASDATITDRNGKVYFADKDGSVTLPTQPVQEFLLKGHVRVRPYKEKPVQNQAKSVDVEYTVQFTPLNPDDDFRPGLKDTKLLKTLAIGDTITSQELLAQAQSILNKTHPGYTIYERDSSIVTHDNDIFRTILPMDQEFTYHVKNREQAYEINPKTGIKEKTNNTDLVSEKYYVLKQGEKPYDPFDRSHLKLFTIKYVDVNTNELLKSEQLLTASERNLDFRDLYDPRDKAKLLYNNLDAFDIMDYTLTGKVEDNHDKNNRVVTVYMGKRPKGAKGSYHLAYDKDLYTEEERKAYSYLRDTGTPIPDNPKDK

[3] = test system: Streptococcus; assay: GAS UMAA2166 growth inhibition – luminescence, BacTiterGlo, counter-screen for streptokinase expression inhibitor project, dose response (AID 1915); type: functional, organism-based;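 note: potency for reduction of bacterial viability or growth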
[4] = target: T2, Bcl-2-related protein A1 (Mus musculus, UniProt Q07440); type: functional;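 note: confirmatory dose–response counterscreen on Bfl-1, used to check hits from a UBC13 polyubiquitin inhibitor campaign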
T2 sequence (Q07440 whole entry): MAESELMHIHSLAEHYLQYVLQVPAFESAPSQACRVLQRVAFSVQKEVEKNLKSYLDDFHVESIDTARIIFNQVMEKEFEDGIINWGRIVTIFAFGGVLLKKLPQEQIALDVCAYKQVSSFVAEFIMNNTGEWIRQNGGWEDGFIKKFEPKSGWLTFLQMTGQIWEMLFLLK

[5] = target: T3, Ubiquitin-conjugating enzyme E2 N (Homo sapiens, UniProt P61088); type: functional
T3 sequence (P61088 whole entry): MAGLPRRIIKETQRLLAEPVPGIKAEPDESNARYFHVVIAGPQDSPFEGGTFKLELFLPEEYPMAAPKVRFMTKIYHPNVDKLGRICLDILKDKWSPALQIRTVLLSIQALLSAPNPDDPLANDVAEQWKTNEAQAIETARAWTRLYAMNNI

[6] = target: T3, Ubiquitin-conjugating enzyme E2 N; type: functional; remark: listed apart in the source
[7] = viability of uninfected HEp-2 cells – cell-based, HTS, cytotoxicity control for RSV inhibitor project, dose response (AID 2410); type: functional; details: human respiratory syncytial virus
[8] = test system: CHO-K1; assay: (§1) Counterscreen for antagonists of the orexin 1 receptor (OX1R; HCRTR1): Homogeneous time resolved fluorescence (HTRF)-based cell-based dose response assay to identify antagonists of the parental CHO-K1 cell line. [Related pubchem assays (depositor defined):AID434989, AID435008, AID463079, AID485270, AID492963, AID492964, AID492965, AID493232, AID504699, AID504701]; type: functional; details: Cricetulus griseus
[9] = as §1, with “Fluorescence-based” for “Homogeneous time resolved fluorescence (HTRF)-based”, “cell-based high throughput” for “cell-based”, “CHO” for “CHO-K1”; type: functional
[10] = target: T4, Orexin/Hypocretin receptor type 1 (Homo sapiens, UniProt O43613); assay: Homogeneous Time Resolved Fluorescence (HTRF)-based cell-based high throughput dose response assay for antagonists of the orexin 1 receptor (OX1R; HCRTR1). [Related pubchem assays (depositor defined):AID434989, AID435008, AID463079, AID485270, AID492963, AID492964, AID492965, AID493232, AID504717, AID504718]; type: functional
[11] = target: T4, Orexin/Hypocretin receptor type 1; assay: Fluorescence-based cell-based high throughput dose response assay for antagonists of the orexin 1 receptor (OX1R; HCRTR1). [Related pubchem assays (depositor defined):AID434989, AID435008, AID463079, AID485270, AID492963, AID492964, AID492965, AID493232, AID504717, AID504718]; type: functional
[12] = target: T5, Runt-related transcription factor 1/Core-binding factor subunit beta (Homo sapiens, UniProt Q01196+Q13951); assay: disruptors of Runt domain/CBFb-SMMHC interaction – biochemical, FRET, Cerulean-Runt, Venus-CBFb-SMMHC, uHTS, […] (AID 1434); type: protein assay
[13] = target: T5, Runt-related transcription factor 1/Core-binding factor subunit beta; assay: Runt domain/CBFb-SMMHC interaction disruptors – biochemical, TR-FRET (AID 1438); type: protein assay
[14] = target: Potassium voltage-gated channel subfamily KQT member 2 (Rattus norvegicus, UniProt O88943, W236L); assay: potentiation of rat KCNQ2 current – cell-based, automated electrophysiology, mechanism study for KCNQ2 potentiator project, dose response (AID 2603); type: functional
[15] = Intein inhibitors as potential Tuberculosis drugs, a cytotoxicity screen. [Related pubchem assays (depositor defined):AID2221, AID2223, AID434968, AID435010, AID449749, AID449750, AID489010]; type: functional
[16] = target: T6, Replicative DNA helicase DnaB (Mycobacterium tuberculosis, UniProt P9WMR3); assay: DnaB intein splicing inhibitors, dose response, biochemical, cell-free fluorescence (AID 449749); type: functional
T6 sequence (P9WMR3 whole entry): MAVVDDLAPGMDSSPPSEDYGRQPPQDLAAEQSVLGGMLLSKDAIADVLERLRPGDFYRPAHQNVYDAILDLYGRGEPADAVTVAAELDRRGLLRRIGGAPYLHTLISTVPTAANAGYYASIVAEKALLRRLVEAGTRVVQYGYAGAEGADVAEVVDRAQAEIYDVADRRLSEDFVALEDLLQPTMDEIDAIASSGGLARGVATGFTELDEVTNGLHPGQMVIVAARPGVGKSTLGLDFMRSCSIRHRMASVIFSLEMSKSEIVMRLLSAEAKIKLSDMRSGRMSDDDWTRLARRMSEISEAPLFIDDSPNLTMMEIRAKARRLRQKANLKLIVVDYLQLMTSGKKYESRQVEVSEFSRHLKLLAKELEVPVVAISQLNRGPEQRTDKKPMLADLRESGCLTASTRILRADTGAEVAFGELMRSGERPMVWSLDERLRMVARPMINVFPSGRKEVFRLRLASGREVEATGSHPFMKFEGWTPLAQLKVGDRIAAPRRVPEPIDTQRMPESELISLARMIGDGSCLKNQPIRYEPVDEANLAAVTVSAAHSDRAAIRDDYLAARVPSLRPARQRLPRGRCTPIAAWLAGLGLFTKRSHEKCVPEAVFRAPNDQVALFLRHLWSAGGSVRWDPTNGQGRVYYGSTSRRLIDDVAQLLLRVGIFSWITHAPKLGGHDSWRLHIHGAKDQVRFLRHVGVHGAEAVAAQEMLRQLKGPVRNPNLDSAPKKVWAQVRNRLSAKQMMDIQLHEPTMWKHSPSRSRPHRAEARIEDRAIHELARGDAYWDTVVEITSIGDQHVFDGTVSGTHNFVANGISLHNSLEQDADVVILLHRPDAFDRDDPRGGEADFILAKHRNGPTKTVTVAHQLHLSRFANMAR

[17] = test system: Vero; assay: viability of Vero cells under compound – cytotoxicity control for flavivirus capping enzyme inhibitors (AID 588742); type: functional; details: Chlorocebus sabaeus
[18] = target: T7, Protein RecA (Mycobacterium tuberculosis, UniProt P9WHJ3); assay: Fluorescence Cell-Free Homogeneous Dose Retest to Identify Inhibitors of RecA-Intein Splicing Activity. [Related pubchem assays (depositor defined):AID2097, AID2223, AID489010, AID492950]; type: functional
T7 sequence (P9WHJ3 whole entry): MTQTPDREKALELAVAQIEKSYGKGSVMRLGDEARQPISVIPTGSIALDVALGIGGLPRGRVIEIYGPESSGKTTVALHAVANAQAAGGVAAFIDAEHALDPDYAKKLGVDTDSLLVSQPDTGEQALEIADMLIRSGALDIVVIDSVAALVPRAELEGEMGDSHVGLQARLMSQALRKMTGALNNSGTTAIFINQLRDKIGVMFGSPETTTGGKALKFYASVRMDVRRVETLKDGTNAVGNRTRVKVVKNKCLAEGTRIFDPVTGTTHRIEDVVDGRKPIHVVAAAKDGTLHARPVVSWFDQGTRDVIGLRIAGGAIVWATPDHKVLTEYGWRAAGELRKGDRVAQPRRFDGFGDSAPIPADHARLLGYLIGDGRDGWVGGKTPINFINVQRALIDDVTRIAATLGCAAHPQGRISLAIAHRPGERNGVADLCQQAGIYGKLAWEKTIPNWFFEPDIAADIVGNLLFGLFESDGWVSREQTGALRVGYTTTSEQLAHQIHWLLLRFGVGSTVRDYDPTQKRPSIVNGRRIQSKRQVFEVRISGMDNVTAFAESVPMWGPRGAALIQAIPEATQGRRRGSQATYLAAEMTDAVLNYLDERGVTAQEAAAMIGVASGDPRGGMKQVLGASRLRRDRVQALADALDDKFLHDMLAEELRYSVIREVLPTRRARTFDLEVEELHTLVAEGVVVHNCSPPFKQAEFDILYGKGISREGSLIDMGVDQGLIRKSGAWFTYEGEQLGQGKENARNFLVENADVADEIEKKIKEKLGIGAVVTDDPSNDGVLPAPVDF

[19] = target: Genome polyprotein (dengue virus type 2, UniProt P29990); assay: flavivirus cap methylation enzyme inhibition – biochemical, confirmation dose response, primary screen (AID 588689); type: functional
[20] = reduction of Shn3 3'UTR-driven luciferase in osteoblasts – cell-based, Clone20 osteoblasts, firefly luciferase, cherry-picked, dose response (AID 624132); type: functional;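 note: firefly luciferase luminescence from reporter carrying the Shn3 3'UTR in osteoblasts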
[21] = non-specific 3'UTR reporter inhibition in Clone20-Shn3RL – cell-based, Renilla luciferase, cherry-picked, counter-screen for Shn3 inhibitor project, dose response (AID 624133); type: functional
[22] = target: Hepatocyte nuclear factor 4-alpha (Homo sapiens, UniProt P41235); type: functional, cell-based;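 note: biochemical luminescence-based dose-response counterscreen measuring inhibition of HNF4 dimerization, run alongside a screen for blockers of ABHD5–perilipin-5 interaction; split luciferase complementation of HNF4 fusion proteins in cell lysate measuring dimerization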
Sequence of Hepatocyte nuclear factor 4-alpha (P41235 whole entry, the tested form may be a part): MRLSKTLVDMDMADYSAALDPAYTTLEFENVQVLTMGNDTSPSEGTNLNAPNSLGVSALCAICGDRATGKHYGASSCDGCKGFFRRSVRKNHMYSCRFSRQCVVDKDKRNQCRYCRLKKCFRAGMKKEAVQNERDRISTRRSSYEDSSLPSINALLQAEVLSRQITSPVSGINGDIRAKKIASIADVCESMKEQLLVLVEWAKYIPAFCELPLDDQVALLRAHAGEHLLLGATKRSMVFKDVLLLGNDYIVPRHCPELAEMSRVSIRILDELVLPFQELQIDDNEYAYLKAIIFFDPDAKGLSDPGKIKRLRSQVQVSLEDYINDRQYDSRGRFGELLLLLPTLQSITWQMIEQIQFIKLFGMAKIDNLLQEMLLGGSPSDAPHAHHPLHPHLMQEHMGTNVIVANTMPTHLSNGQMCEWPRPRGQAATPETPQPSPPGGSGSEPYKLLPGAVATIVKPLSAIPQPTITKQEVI

T5 sequence (Q01196 whole entry, the tested form may be a part): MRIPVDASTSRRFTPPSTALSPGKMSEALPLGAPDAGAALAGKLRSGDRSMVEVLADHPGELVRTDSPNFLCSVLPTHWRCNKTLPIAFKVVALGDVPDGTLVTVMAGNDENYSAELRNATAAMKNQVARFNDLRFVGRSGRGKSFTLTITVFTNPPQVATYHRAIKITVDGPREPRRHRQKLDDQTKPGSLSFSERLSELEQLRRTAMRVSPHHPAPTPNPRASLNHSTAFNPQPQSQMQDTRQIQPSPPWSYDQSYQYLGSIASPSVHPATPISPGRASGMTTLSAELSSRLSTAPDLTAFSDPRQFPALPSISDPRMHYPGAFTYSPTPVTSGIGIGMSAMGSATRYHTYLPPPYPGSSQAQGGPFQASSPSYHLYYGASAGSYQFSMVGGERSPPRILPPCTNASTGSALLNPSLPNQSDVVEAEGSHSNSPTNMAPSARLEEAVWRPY
T5 sequence (Q13951 whole entry, the tested form may be a part): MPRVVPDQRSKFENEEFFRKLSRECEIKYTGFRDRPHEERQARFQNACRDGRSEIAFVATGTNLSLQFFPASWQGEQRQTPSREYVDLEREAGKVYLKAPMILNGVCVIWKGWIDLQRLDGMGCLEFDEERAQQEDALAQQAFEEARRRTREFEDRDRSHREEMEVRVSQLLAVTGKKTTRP
T4 sequence (O43613 whole entry): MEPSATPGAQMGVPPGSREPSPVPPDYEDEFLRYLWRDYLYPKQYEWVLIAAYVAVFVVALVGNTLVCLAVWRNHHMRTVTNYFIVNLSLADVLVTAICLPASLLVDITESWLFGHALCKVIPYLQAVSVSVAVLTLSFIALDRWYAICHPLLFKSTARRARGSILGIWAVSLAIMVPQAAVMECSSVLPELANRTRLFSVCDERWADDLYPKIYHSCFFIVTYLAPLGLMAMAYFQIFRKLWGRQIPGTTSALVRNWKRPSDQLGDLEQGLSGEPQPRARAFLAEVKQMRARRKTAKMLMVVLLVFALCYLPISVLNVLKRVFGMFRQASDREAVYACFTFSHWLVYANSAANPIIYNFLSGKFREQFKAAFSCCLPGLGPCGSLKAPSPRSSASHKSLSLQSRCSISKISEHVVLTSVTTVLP
Sequence of Potassium voltage-gated channel subfamily KQT member 2 (O88943 whole entry W236L): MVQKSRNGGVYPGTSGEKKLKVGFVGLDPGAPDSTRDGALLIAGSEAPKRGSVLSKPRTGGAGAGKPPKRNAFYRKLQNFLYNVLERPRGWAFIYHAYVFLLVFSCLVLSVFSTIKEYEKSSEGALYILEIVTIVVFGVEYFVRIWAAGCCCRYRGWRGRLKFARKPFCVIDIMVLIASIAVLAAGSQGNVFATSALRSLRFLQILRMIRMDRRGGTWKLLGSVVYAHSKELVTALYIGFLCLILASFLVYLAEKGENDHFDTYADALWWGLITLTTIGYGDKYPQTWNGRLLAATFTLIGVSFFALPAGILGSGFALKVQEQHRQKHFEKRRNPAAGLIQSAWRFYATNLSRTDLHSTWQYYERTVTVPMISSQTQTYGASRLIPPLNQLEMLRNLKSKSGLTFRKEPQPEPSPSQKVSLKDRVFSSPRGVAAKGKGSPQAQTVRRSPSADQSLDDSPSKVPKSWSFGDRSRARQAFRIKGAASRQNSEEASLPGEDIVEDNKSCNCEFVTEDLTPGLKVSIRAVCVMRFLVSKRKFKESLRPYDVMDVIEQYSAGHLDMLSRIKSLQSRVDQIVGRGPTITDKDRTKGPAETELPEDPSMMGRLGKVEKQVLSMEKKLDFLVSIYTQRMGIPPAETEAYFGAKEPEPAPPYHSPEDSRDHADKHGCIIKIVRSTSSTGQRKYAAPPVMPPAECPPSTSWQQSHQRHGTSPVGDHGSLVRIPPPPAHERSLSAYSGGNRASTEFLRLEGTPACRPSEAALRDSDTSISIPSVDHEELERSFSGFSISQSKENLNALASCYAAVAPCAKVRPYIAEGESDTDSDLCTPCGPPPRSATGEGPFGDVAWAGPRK
Sequence of Genome polyprotein (P29990 2492-3391 limits assumed): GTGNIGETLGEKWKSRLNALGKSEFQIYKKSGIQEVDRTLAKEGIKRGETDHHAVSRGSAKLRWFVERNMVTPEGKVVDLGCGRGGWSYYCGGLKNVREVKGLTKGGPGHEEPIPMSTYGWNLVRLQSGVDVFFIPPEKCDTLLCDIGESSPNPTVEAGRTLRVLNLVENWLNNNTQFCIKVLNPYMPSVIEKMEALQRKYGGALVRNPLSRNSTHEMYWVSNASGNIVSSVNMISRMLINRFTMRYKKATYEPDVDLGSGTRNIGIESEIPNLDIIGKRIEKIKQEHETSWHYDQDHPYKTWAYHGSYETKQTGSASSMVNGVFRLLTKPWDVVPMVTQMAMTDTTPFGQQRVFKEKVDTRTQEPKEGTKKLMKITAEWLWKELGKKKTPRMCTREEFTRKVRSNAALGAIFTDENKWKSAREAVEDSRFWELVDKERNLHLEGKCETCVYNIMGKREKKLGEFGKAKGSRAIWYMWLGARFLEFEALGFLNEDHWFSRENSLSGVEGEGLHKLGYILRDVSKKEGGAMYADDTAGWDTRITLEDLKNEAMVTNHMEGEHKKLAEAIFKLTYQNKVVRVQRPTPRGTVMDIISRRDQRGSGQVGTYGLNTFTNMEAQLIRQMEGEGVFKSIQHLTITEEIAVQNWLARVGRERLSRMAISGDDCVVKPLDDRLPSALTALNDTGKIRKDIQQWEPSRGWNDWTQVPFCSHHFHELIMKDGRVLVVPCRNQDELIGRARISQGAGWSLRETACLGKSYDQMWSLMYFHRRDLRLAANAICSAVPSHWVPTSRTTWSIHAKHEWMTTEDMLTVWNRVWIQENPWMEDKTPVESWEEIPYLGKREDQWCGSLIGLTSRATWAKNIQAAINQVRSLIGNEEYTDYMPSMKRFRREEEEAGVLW

Compound: COc1ccc(OCC(=O)NNC(=S)NC(=O)C2CC2)cc1
- EC50 [1]: 7.37 µM (active)
- EC50 [2]: > 150 µM (not active)
- EC50 [3]: 23.3 µM (active)
- IC50 [4]: > 20 µM (inactive)
- IC50 [5]: 14.8 µM (active)
- IC50 [6]: 6.63 µM (active)

Compound: Cc1cc(C)cc(NC(=O)C2CCCN2S(=O)(=O)c2cccc3cccnc23)c1 (configuration not stated)
- CC50 [7]: 32.9 µM (active)
- IC50 [8]: > 66.2 µM (inactive)
- IC50 [9]: > 49.7 µM (inactive)
- IC50 [10]: 0.244 µM (active)
- IC50 [11]: 3.03 µM (active)

Compound: CN1c2ccsc2C(O)=C(C(S)=Nc2ccc(F)c(Cl)c2)S1(=O)=O
- IC50 [12]: > 100 µM (inactive)
- IC50 [13]: > 100 µM (inactive)

Compound: CSc1nnc(NC(=O)c2nc(S(=O)(=O)Cc3cccc(C)c3)ncc2Cl)s1
- EC50 [14]: 1.83 µM (active)
- CC50 [15]: 26.7 µM (active)
- AC50 [16]: 3.49 µM (active)
- CC50 [17]: 24.9 µM (active)
- EC50 [18]: 3.16 µM (active)
- IC50 [19]: 44.5 µM (active)
- AC50 [20]: 4.03 µM (active)
- AC50 [21]: 11.5 µM (active)
- IC50 [22]: 4.45 µM (active)
